“And” between values parts separate entries of the source, which are not always exact repeats. Equal values may be shown once. Inconclusive results and toxic doses are left out. Rule for the calls: active = survival T/C of 150% or more; inactive = T/C below 125% in these data.
System: P388 leukemia ip, CD2F1 mice, survival T/C
Assay: NCI In Vivo Anticancer Drug Screen. Data for tumor model P388 Leukemia (intraperitoneal) in CD2F1 (CDF1) mice
Conditions: endpoint: median survival time, higher = longer survival
How it was run: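 Mice carrying the transplanted tumor received test compound or vehicle. Survival was recorded in each group, and the value is the treated-group measurement divided by that of the vehicle-treated control group.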

[1] = dose: 25.0 mg/kg/injection, schedule: Q01DX009 (ip), vehicle: saline with Tween-80
[2] = dose: 50.0 mg/kg/injection, schedule: Q01DX009 (ip), vehicle: saline with Tween-80
[3] = dose: 60.0 mg/kg/injection, schedule: Q01DX005 (ip), vehicle: saline with Tween-80
[4] = dose: 120.0 mg/kg/injection, schedule: Q01DX005 (ip), vehicle: saline with Tween-80
[5] = dose: 240.0 mg/kg/injection, schedule: Q01DX005 (ip), vehicle: saline with Tween-80
[6] = dose: 100.0 mg/kg/injection, schedule: Q01DX009 (ip), vehicle: saline with Tween-80
[7] = dose: 200.0 mg/kg/injection, schedule: Q01DX009 (ip), vehicle: saline with Tween-80
[8] = dose: 50.0 mg/kg/injection, schedule: Q01DX005 (ip), vehicle: saline with Tween-80
[9] = dose: 100.0 mg/kg/injection, schedule: Q01DX005 (ip), vehicle: saline with Tween-80
[10] = dose: 200.0 mg/kg/injection, schedule: Q01DX005 (ip), vehicle: saline with Tween-80
[11] = dose: 50.0 mg/kg/injection, schedule: Q01DX009 (ip), vehicle: Klucel (hydroxypropylcellulose) (HPC)

Measured: T/C

[Cl][Pt]([Cl])([Cl])[Cl]
inactive: dose: 12.5 mg/kg/injection, schedule: Q01DX009 (ip), vehicle: saline 123 % of control | dose: 25.0 mg/kg/injection, schedule: Q01DX009 (ip), vehicle: saline 111 % of control

COC1C(OC2CCC3(C=O)C4CCC5(C)C(C6=CC(=O)OC6)CCC5(O)C4CCC3(O)C2)OC(C)C(O)C1OC (centres undefined)
inactive: dose: 0.35 mg/kg/injection, schedule: Q01DX009 (ip), vehicle: saline 99 % of control | dose: 0.7 mg/kg/injection, schedule: Q01DX009 (ip), vehicle: saline 100 % of control | dose: 1.4 mg/kg/injection, schedule: Q01DX009 (ip), vehicle: saline 100 % of control | dose: 2.8 mg/kg/injection, schedule: Q01DX009 (ip), vehicle: saline 100 % of control

CC(C)(C)OC(=O)NNS(=O)(=O)CCC(N)C(=O)O (centres undefined)
inactive: dose: 12.5 mg/kg/injection, schedule: Q01DX009 (ip), vehicle: other 106 % of control | dose: 25.0 mg/kg/injection, schedule: Q01DX009 (ip), vehicle: other 106 % of control | dose: 50.0 mg/kg/injection, schedule: Q01DX009 (ip), vehicle: other 97 % of control | dose: 100.0 mg/kg/injection, schedule: Q01DX009 (ip), vehicle: other 97 % of control | dose: 200.0 mg/kg/injection, schedule: Q01DX009 (ip), vehicle: other 100 % of control

COc1ccc2nc3cc(Cl)ccc3c(NN3CCN(CCO)CC3)c2c1
inactive: dose: 0.19 mg/kg/injection, schedule: Q01DX009 (ip), vehicle: DMSO 86 % of control | dose: 0.38 mg/kg/injection, schedule: Q01DX009 (ip), vehicle: DMSO 98 % of control and 89 % of control | dose: 0.75 mg/kg/injection, schedule: Q01DX009 (ip), vehicle: DMSO 98 % of control | dose: 1.5 mg/kg/injection, schedule: Q01DX009 (ip), vehicle: DMSO 107 % of control and 95 % of control | dose: 23.0 micrograms/kg/injection, schedule: Q01DX009 (ip), vehicle: DMSO 87 % of control | dose: 47.0 micrograms/kg/injection, schedule: Q01DX009 (ip), vehicle: DMSO 91 % of control | dose: 94.0 micrograms/kg/injection, schedule: Q01DX009 (ip), vehicle: DMSO 89 % of control

Cc1nc2c(sc(=N)n2-c2ccccc2)c(=O)[nH]1
inactive: dose: 12.5 mg/kg/injection, schedule: Q01DX009 (ip), vehicle: saline with Tween-80 115 % of control | [1] 106 % of control | [2] 103 % of control

CCOC(OCC)(c1ccccc1)N(C)C
inactive: [3] 92 % of control | [4] 100 % of control | [5] 104 % of control

CC1=C(C)C(C)(C)OC1=O
inactive: dose: 100.0 mg/kg/injection, schedule: Q01DX001 (ip), vehicle: saline with Tween-80 100 % of control | dose: 200.0 mg/kg/injection, schedule: Q01DX001 (ip), vehicle: saline with Tween-80 100 % of control | dose: 400.0 mg/kg/injection, schedule: Q01DX001 (ip), vehicle: saline with Tween-80 104 % of control

CC(C)(C)SC(=O)C1CC1
inactive: dose: 100.0 mg/kg/injection, schedule: Q04DX003 (ip), vehicle: saline with Tween-80 111 % of control | dose: 200.0 mg/kg/injection, schedule: Q04DX003 (ip), vehicle: saline with Tween-80 102 % of control

C[C@@H]1C[C@H](C)OC(CO)O1 (some centres undefined) (tested in a mixture with another compound)
inactive: dose: 60.0 mg/kg/injection, schedule: Q01DX005 (ip), vehicle: saline 100 % of control | dose: 120.0 mg/kg/injection, schedule: Q01DX005 (ip), vehicle: saline 99 % of control | dose: 240.0 mg/kg/injection, schedule: Q01DX005 (ip), vehicle: saline 97 % of control

COc1ccc(NC(CCN2CCCCC2)=NC(C)(C)C)cc1
inactive: [2] 110 % of control | [6] 104 % of control | [7] 101 % of control

O=c1c2cccc3cccc(c32)c2nc3ccccc3n12
inactive: dose: 4.12 mg/kg/injection, schedule: Q01DX009 (ip), vehicle: saline with Tween-80 108 % of control | dose: 6.25 mg/kg/injection, schedule: Q01DX009 (ip), vehicle: saline with Tween-80 100 % of control | [1] 95 % of control

C=C(CN(C)C)C(=O)c1ccc(OC2OC(COC(C)=O)C(OC(C)=O)C(OC(C)=O)C2OC(C)=O)cc1 (centres undefined)
inactive: dose: 6.25 mg/kg/injection, schedule: Q01DX005 (ip), vehicle: saline with Tween-80 106 % of control | dose: 12.5 mg/kg/injection, schedule: Q01DX005 (ip), vehicle: saline with Tween-80 109 % of control

CCc1cccc(C)c1NC(=O)CCc1nnc(N)n1N
inactive: [8] 104 % of control | [9] 107 % of control | [10] 94 % of control

Cc1cc(N)ncc1[N+](=O)[O-]
inactive: [8] 99 % of control | [9] 101 % of control | [10] 98 % of control

CNC(=O)C(C(=O)NC)c1ccccc1
inactive: dose: 100.0 mg/kg/injection, schedule: Q04DX003 (ip), vehicle: Klucel (hydroxypropylcellulose) (HPC) 95 % of control | dose: 200.0 mg/kg/injection, schedule: Q04DX003 (ip), vehicle: Klucel (hydroxypropylcellulose) (HPC) 95 % of control | dose: 400.0 mg/kg/injection, schedule: Q04DX003 (ip), vehicle: Klucel (hydroxypropylcellulose) (HPC) 96 % of control

CCOC(=O)c1nnc2cc(-c3ccccc3)nn2c1-c1ccccc1
inactive: [3] 101 % of control | [4] 95 % of control

CSCNC(=S)Nc1ccc(Cl)cc1
inactive: [11] 94 % of control

Nc1cc(Cl)nc(N)n1
inactive: [1] 96 % of control | [2] 97 % of control | [6] 101 % of control | [7] 105 % of control | dose: 400.0 mg/kg/injection, schedule: Q01DX009 (ip), vehicle: saline with Tween-80 100 % of control

N.N.O=C([O-])/C=C\C(=O)[O-].[Pt]
inactive: dose: 4.38 mg/kg/injection, schedule: Q04DX002 (ip), vehicle: saline with Tween-80 117 % of control

CS(=O)(=O)C(c1nc2nnc(NC(=O)Nc3ccc(Cl)cc3)n2[nH]c1=O)c1nc2nnc(NC(=O)Nc3ccc(Cl)cc3)n2[nH]c1=O
inactive: [3] 104 % of control | [4] 100 % of control | [5] 98 % of control

O=C1Cc2ccccc2C2(CCCCC2)O1
inactive: dose: 50.0 mg/kg/injection, schedule: Q01DX005 (ip), vehicle: Klucel (hydroxypropylcellulose) (HPC) 100 % of control | dose: 100.0 mg/kg/injection, schedule: Q01DX005 (ip), vehicle: Klucel (hydroxypropylcellulose) (HPC) 98 % of control | dose: 200.0 mg/kg/injection, schedule: Q01DX005 (ip), vehicle: Klucel (hydroxypropylcellulose) (HPC) 100 % of control

CC(C)(C#N)OC(=O)Nc1c(Cl)cccc1Cl
inactive: [3] 100 % of control | [4] 98 % of control | [5] 94 % of control

O=C1CC(c2ccccc2)NCCC2CN(CCCN1)C(=O)c1ccccc12 (centres undefined)
inactive: dose: 16.25 mg/kg/injection, schedule: Q01DX005 (ip), vehicle: Klucel (hydroxypropylcellulose) (HPC) 100 % of control | dose: 32.5 mg/kg/injection, schedule: Q01DX005 (ip), vehicle: Klucel (hydroxypropylcellulose) (HPC) 100 % of control | dose: 65.0 mg/kg/injection, schedule: Q01DX005 (ip), vehicle: Klucel (hydroxypropylcellulose) (HPC) 100 % of control | dose: 130.0 mg/kg/injection, schedule: Q01DX005 (ip), vehicle: Klucel (hydroxypropylcellulose) (HPC) 100 % of control

CC(C)Sc1nc2ccc(NC(=O)/C=C/C(=O)O)cc2s1
inactive: [11] 100 % of control | dose: 100.0 mg/kg/injection, schedule: Q01DX009 (ip), vehicle: Klucel (hydroxypropylcellulose) (HPC) 104 % of control | dose: 200.0 mg/kg/injection, schedule: Q01DX009 (ip), vehicle: Klucel (hydroxypropylcellulose) (HPC) 101 % of control

Source: PubChem BioAssay AID330 (DTP/NCI, 2004)
